ChEMBL document CHEMBL4665746, “Viennamycins: Lipopeptides Produced by a Streptomyces sp” (J Nat Prod, 2020)
The source made the active and inactive calls.

Assays:
Bacillus subtilis [1] = experiment: Antimicrobial activity against Bacillus subtilis in presence of >= 5 mM Zn2+; assay type: functional, organism-based
Bacillus subtilis [2] = experiment: Antimicrobial activity against Bacillus subtilis in presence of >= 5 mM Mg2+; assay type: functional, organism-based
Bacillus subtilis [3] = experiment: Antimicrobial activity against Bacillus subtilis in presence of >= 5 mM Mn2+; assay type: functional, organism-based
Aspergillus niger [4] = experiment: Antimicrobial activity against Aspergillus niger CBS 110271; assay type: functional, organism-based
Bacillus subtilis [5] = experiment: Antimicrobial activity against Bacillus subtilis in presence of >= 5 mM Ca2+; assay type: functional, organism-based
Aspergillus niger [6] = experiment: Antimicrobial activity against Aspergillus niger CBS 110271 in presence of >= 5 uM Ca2+; assay type: functional, organism-based
Fusarium graminearum [7] = experiment: Antimicrobial activity against Fusarium graminearum CBS 112.30; assay type: functional, organism-based
Fusarium graminearum [8] = experiment: Antimicrobial activity against Fusarium graminearum CBS 112.30 in presence of >= 5 uM Ca2+; assay type: functional, organism-based
Saccharomyces cerevisiae [9] = experiment: Antimicrobial activity against Saccharomyces cerevisiae BY4742 in presence of >= 5 uM Ca2+; assay type: functional, organism-based
Saccharomyces cerevisiae [10] = experiment: Antimicrobial activity against Saccharomyces cerevisiae BY4742; assay type: functional, organism-based
Acinetobacter baumannii [11] = experiment: Antimicrobial activity against Acinetobacter baumannii 1710; assay type: functional, organism-based
Acinetobacter baumannii [12] = experiment: Antimicrobial activity against Acinetobacter baumannii 1799; assay type: functional, organism-based
Acinetobacter baumannii [13] = experiment: Antimicrobial activity against Acinetobacter baumannii 1710 in presence of >= 5 uM Ca2+; assay type: functional, organism-based
Acinetobacter baumannii [14] = experiment: Antimicrobial activity against Acinetobacter baumannii 1799 in presence of >= 5 uM Ca2+; assay type: functional, organism-based
Acinetobacter baumannii [15] = experiment: Antimicrobial activity against Acinetobacter baumannii MB5973; assay type: functional, organism-based
Streptomyces coelicolor [16] = experiment: Antimicrobial activity against Streptomyces coelicolor A3 in presence of >= 5 uM Ca2+; assay type: functional, organism-based
Acinetobacter baumannii [17] = experiment: Antimicrobial activity against Acinetobacter baumannii MB5973 in presence of >= 5 uM Ca2+; assay type: functional, organism-based
Streptomyces coelicolor [18] = experiment: Antimicrobial activity against Streptomyces coelicolor A3; assay type: functional, organism-based
Streptococcus pneumoniae [19] = experiment: Antimicrobial activity against Streptococcus pneumoniae ATCC 46619; assay type: functional, organism-based
[20] = tested on: Staphylococcus epidermidis; experiment: Antimicrobial activity against Staphylococcus epidermidis; assay type: functional, organism-based
Streptococcus pneumoniae [21] = experiment: Antimicrobial activity against Streptococcus pneumoniae ATCC 46619 in presence of >= 5 uM Ca2+; assay type: functional, organism-based
[22] = tested on: Staphylococcus epidermidis; experiment: Antimicrobial activity against Staphylococcus epidermidis in presence of >= 5 uM Ca2+; assay type: functional, organism-based
Staphylococcus aureus [23] = experiment: Antimicrobial activity against Staphylococcus aureus MB2865; assay type: functional, organism-based
Staphylococcus aureus [24] = experiment: Antimicrobial activity against Staphylococcus aureus MB2865 in presence of >= 5 uM Ca2+; assay type: functional, organism-based
Staphylococcus aureus [25] = experiment: Antimicrobial activity against methicillin-sensitive Staphylococcus aureus ATCC 29213; assay type: functional, organism-based
Staphylococcus aureus [26] = experiment: Antimicrobial activity against Staphylococcus aureus 1415-10; assay type: functional, organism-based
Staphylococcus aureus [27] = experiment: Antimicrobial activity against methicillin-sensitive Staphylococcus aureus ATCC 29213 in presence of >= 5 uM Ca2+; assay type: functional, organism-based
Staphylococcus aureus [28] = experiment: Antimicrobial activity against Staphylococcus aureus 1415-10 in presence of >= 5 uM Ca2+; assay type: functional, organism-based
Staphylococcus aureus [29] = experiment: Antimicrobial activity against methicillin-resistant Staphylococcus aureus MB5393; assay type: functional, organism-based
Staphylococcus aureus [30] = experiment: Antimicrobial activity against methicillin-resistant Staphylococcus aureus MB5393 in presence of >= 5 uM Ca2+; assay type: functional, organism-based
MIA PaCa-2 [31] = experiment: Cytotoxicity against human MIA PaCa-2 cells assessed as reduction in cell viability; assay type: functional, cell-based
A2058 [32] = experiment: Cytotoxicity against human A2058 cells assessed as reduction in cell viability; assay type: functional, cell-based
A549 [33] = experiment: Cytotoxicity against human A549 cells assessed as reduction in cell viability; assay type: functional, cell-based
HepG2 [34] = experiment: Cytotoxicity against human HepG2 cells assessed as reduction in cell viability; assay type: functional, cell-based
MIA PaCa-2 [35] = experiment: Cytotoxicity against human MIA PaCa-2 cells assessed as reduction in cell viability in presence of >= 5 uM Ca2+; assay type: functional, cell-based
A2058 [36] = experiment: Cytotoxicity against human A2058 cells assessed as reduction in cell viability in presence of >= 5 uM Ca2+; assay type: functional, cell-based
A549 [37] = experiment: Cytotoxicity against human A549 cells assessed as reduction in cell viability in presence of >= 5 uM Ca2+; assay type: functional, cell-based
HepG2 [38] = experiment: Cytotoxicity against human HepG2 cells assessed as reduction in cell viability in presence of >= 5 uM Ca2+; assay type: functional, cell-based

Measured: Activity

CC[C@H](C)[C@H](NC(=O)[C@H](CC(N)=O)NC(=O)/C=C\C=C\CCC(C)C)C(=O)N[C@H](Cc1ccccc1)C(=O)N[C@H](CS(=O)(=O)O)C(=O)N[C@@H](CC(=O)O)C(=O)N[C@@H]1C(=O)N(C)[C@H](C(C)C)C(=O)NCC(=O)NCC(=O)N[C@H](CCC(=O)O)C(=O)N[C@@H](C)C(=O)N2CCC[C@H]2C(=O)O[C@@H]1C
inactive: Bacillus subtilis [1] | Bacillus subtilis [2] | Bacillus subtilis [3] | Aspergillus niger [4] | Bacillus subtilis [5] | Aspergillus niger [6] | Fusarium graminearum [7] | Fusarium graminearum [8] | Saccharomyces cerevisiae [9] | Saccharomyces cerevisiae [10] | Acinetobacter baumannii [11] | Acinetobacter baumannii [12] | Acinetobacter baumannii [13] | Acinetobacter baumannii [14] | Acinetobacter baumannii [15] | Streptomyces coelicolor [16] | Acinetobacter baumannii [17] | Streptomyces coelicolor [18] | Streptococcus pneumoniae [19] | [20] | Streptococcus pneumoniae [21] | [22] | Staphylococcus aureus [23] | Staphylococcus aureus [24] | Staphylococcus aureus [25] | Staphylococcus aureus [26] | Staphylococcus aureus [27] | Staphylococcus aureus [28] | Staphylococcus aureus [29] | Staphylococcus aureus [30] | MIA PaCa-2 [31] | A2058 [32] | A549 [33] | HepG2 [34] | MIA PaCa-2 [35] | A2058 [36] | A549 [37] | HepG2 [38]

CC[C@H](C)[C@H](NC(=O)[C@H](CC(N)=O)NC(=O)/C=C\C=C\CCC(C)C)C(=O)N[C@H](Cc1ccccc1)C(=O)N[C@H](CC(=O)O)C(=O)N[C@@H](CC(=O)O)C(=O)N[C@@H]1C(=O)N(C)[C@H](C(C)C)C(=O)NCC(=O)NCC(=O)N[C@H](CCC(=O)O)C(=O)N[C@@H](C)C(=O)N2CCC[C@H]2C(=O)O[C@@H]1C
inactive: Bacillus subtilis [1] | Bacillus subtilis [2] | Bacillus subtilis [3] | Aspergillus niger [4] | Bacillus subtilis [5] | Aspergillus niger [6] | Fusarium graminearum [7] | Fusarium graminearum [8] | Saccharomyces cerevisiae [9] | Saccharomyces cerevisiae [10] | Acinetobacter baumannii [11] | Acinetobacter baumannii [12] | Acinetobacter baumannii [13] | Acinetobacter baumannii [14] | Acinetobacter baumannii [15] | Streptomyces coelicolor [16] | Acinetobacter baumannii [17] | Streptomyces coelicolor [18] | Streptococcus pneumoniae [19] | [20] | Streptococcus pneumoniae [21] | [22] | Staphylococcus aureus [23] | Staphylococcus aureus [24] | Staphylococcus aureus [25] | Staphylococcus aureus [26] | Staphylococcus aureus [27] | Staphylococcus aureus [28] | Staphylococcus aureus [29] | Staphylococcus aureus [30] | MIA PaCa-2 [31] | A2058 [32] | A549 [33] | HepG2 [34] | MIA PaCa-2 [35] | A2058 [36] | A549 [37] | HepG2 [38]
